This test has as its target PDE1B (Homo sapiens, UniProt Q01064). The experiment in a line: In vitro HTRF PDE1 inhibition assay (PDE1B). Format: biochemical. The following applies: in vitro PDE1B HTRF Assay; read-out: IC50. (In general: TR-FRET usually uses a lanthanide donor and a delayed reading to cut background.)

pIC50: −log10 of the molar value.

As a reminder, the pIC50 is −log10 of the IC50, conventionally taken in molar units.

PDE1B, sequence (Q01064 whole entry): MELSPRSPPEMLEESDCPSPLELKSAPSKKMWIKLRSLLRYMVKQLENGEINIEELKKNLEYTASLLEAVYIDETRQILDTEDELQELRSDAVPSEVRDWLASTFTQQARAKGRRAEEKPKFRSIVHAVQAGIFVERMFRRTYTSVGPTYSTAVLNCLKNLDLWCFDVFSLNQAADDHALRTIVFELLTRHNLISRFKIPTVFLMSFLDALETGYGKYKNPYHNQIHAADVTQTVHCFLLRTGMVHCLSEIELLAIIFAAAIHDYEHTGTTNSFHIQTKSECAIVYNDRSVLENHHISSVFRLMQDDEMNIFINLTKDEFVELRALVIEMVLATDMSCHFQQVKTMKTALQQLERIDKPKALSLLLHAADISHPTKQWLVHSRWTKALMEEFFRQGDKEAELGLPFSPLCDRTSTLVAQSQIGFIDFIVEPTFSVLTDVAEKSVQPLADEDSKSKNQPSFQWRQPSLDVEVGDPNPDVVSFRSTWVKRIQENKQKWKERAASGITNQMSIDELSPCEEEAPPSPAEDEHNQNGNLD

Turning to `Cc1ccc(COc2nn3c(C(C)C)ncc3c(=O)n2C)nc1` [Example 2, 3-Methyl-2-[(5-methylpyridin-2-yl)methoxy]-7-(propan-2-yl)imidazo[5,1-f][1,2,4]triazin-4(3H)-one], the pIC50 is greater than 6.00.
On to `CC(C)c1ncc2c(=O)n(C)c(OCCc3ccncc3)nn12` [Example 3, 3-Methyl-7-(propan-2-yl)-2-[2-(pyridin-4-yl)ethoxy]imidazo[5,1-f][1,2,4]triazin-4(3H)-one], for which the pIC50 is greater than 6.00.
As to `CC(C)c1ncc2c(=O)n(C)c(OCc3cccnc3)nn12` [Example 5], the pIC50 was greater than 6.00.
To `CC(C)c1ncc2c(=O)n(C)c(OCC(F)(F)F)nn12` [Example 9] belongs greater than 6.00; to `CC(C)COc1nn2c(C(C)C)ncc2c(=O)n1C` [Example 11], greater than 6.00; to `CC(C)c1ncc2c(=O)n(C)c(OCc3ccccn3)nn12` [Example 12], greater than 6.00.
Take `CC(C)c1ncc2c(=O)n(C)c(OCc3ccc(F)cc3)nn12` [Example 14]: the pIC50 was greater than 6.00.
Regarding `CC(C)c1ncc2c(=O)n(C)c(OCc3ccncc3)nn12` [Example 15], the pIC50 is greater than 6.00.
For `CCn1c(OCc2ccccc2)nn2c(C(C)C)ncc2c1=O` [Example 17], the pIC50 was greater than 6.00.
To `CCn1c(OCc2cccnc2)nn2c(C(C)C)ncc2c1=O` [Example 19] belongs greater than 6.00.
Consider `Cn1c(OCc2ccncc2)nn2c(C3CCOCC3)ncc2c1=O` [Example 25], for which the pIC50 is greater than 6.00.
Regarding `Cc1ccc(COc2nn3c(C4CCOCC4)ncc3c(=O)n2C)cc1` [Example 27], the pIC50 was greater than 6.00.
For the molecule `Cn1c(OCc2ccc(Cl)cc2)nn2c(C3CCOCC3)ncc2c1=O` [Example 28], the pIC50 is greater than 6.00.
Turning to `Cn1c(OCc2cccc(C#N)c2)nn2c(C3CCOCC3)ncc2c1=O` [Example 29], the pIC50 was 5.00 to 6.00.
In the case of `Cn1c(OCCCc2ccccn2)nn2c(C3CCOCC3)ncc2c1=O` [Example 31], the pIC50 was greater than 6.00.
`Cn1c(OCC2CC(F)(F)C2)nn2c(C3CCOCC3)ncc2c1=O` [Example 33]: the pIC50 was greater than 6.00.
For the molecule `Cn1c(OCCC2CCC(F)(F)CC2)nn2c(C3CCOCC3)ncc2c1=O` [Example 39], the pIC50 was greater than 6.00.
On to `Cn1c(OCc2cccc(F)c2)nn2c(C3CCOCC3)ncc2c1=O` [Example 40], for which the pIC50 is greater than 6.00.
On to `Cn1c(OCCCc2ccc(F)cn2)nn2c(C3CCOCC3)ncc2c1=O` [Example 41], for which the pIC50 was greater than 6.00.
To `Cc1ccc(CCCOc2nn3c(C4CCOCC4)ncc3c(=O)n2C)nc1` [Example 42] belongs greater than 6.00; to `Cn1c(OCCCc2ncccc2F)nn2c(C3CCOCC3)ncc2c1=O` [Example 43], greater than 6.00.
To `Cn1c(OCc2ccc(-c3ccccn3)cc2)nn2c(C3CCOCC3)ncc2c1=O` [Example 44] belongs greater than 6.00; to `Cn1c(OCCCc2cccnc2)nn2c(C3CCOCC3)ncc2c1=O` [Example 46], greater than 6.00.
To `Cn1c(OCc2ccc(-c3ccccc3)cc2)nn2c(C3CCOCC3)ncc2c1=O` [Example 47] belongs greater than 6.00; to `Cn1c(OCc2ccc(-c3ccc(Cl)cn3)cc2)nn2c(C3CCOCC3)ncc2c1=O` [Example 50], greater than 6.00.
For the molecule `Cn1c(OCc2ccc(-c3ccc(F)cc3)cc2)nn2c(C3CCOCC3)ncc2c1=O` [Example 51], the pIC50 was 5.00 to 6.00.
For `CC(Oc1nn2c(C3CCOCC3)ncc2c(=O)n1C)c1ccc(-c2ccccn2)cc1` (centres unmarked) [Example 52] the value was greater than 6.00.
In the case of `Cn1c(OCc2ccc(-c3ccc(F)cn3)cc2)nn2c(C3CCOCC3)ncc2c1=O` [Example 53], the pIC50 was greater than 6.00.
For `CCn1c(OCc2ccc(OC)cc2)nn2c(C3CCOCC3)ncc2c1=O` [Example 54] the value was greater than 6.00.
As for `CCn1c(OCC(C)C)nn2c(C3CCOCC3)ncc2c1=O` [Example 55], the pIC50 was greater than 6.00.
As for `CCn1c(OCc2ccc(F)cc2)nn2c(C3CCOCC3)ncc2c1=O` [Example 56], the pIC50 was greater than 6.00.
Take `CCn1c(OCc2cc(F)ccc2F)nn2c(C3CCOCC3)ncc2c1=O` [Example 57]: the pIC50 is greater than 6.00.
As for `CCn1c(OCC2(C)COC2)nn2c(C3CCOCC3)ncc2c1=O` [Example 58], the pIC50 is greater than 6.00.
`CCn1c(OCc2ccc(F)c(F)c2)nn2c(C3CCOCC3)ncc2c1=O` [Example 59]: the pIC50 is greater than 6.00.
`CCn1c(OCCc2ccncc2)nn2c(C3CCOCC3)ncc2c1=O` [Example 60]: the pIC50 was greater than 6.00.
As for `CCn1c(OCCCc2ccncc2)nn2c(C3CCOCC3)ncc2c1=O` [Example 61], the pIC50 is greater than 6.00.
For `CCn1c(OCCCOC)nn2c(C3CCOCC3)ncc2c1=O` [Example 62], the pIC50 was greater than 6.00.
For the molecule `CCn1c(OCCCc2ccccn2)nn2c(C3CCOCC3)ncc2c1=O` [Example 63], the pIC50 was greater than 6.00.
On to `CCn1c(OCCc2ccccn2)nn2c(C3CCOCC3)ncc2c1=O` [Example 64], for which the negative-log IC50 (pIC50) was greater than 6.00.
To `CCn1c(OCCCc2ncccc2F)nn2c(C3CCOCC3)ncc2c1=O` [Example 65] belongs greater than 6.00; to `CCn1c(OCc2ccc(-c3ccccn3)cc2)nn2c(C3CCOCC3)ncc2c1=O` [Example 67], greater than 6.00; to `CCn1c(OCCCc2cccnc2)nn2c(C3CCOCC3)ncc2c1=O` [Example 68], greater than 6.00.
For `CCn1c(OC(C)c2ccc(F)cc2)nn2c(C3CCOCC3)ncc2c1=O` (centres unmarked) [Example 69] the value was greater than 6.00; for `CCn1c(OCCc2ccc(F)cc2)nn2c(C3CCOCC3)ncc2c1=O` [Example 70], greater than 6.00; for `CCn1c(OCCCc2ncccc2C)nn2c(C3CCOCC3)ncc2c1=O` [Example 71], greater than 6.00.
For the molecule `CCn1c(OCCCc2cccc(C)n2)nn2c(C3CCOCC3)ncc2c1=O` [Example 72], the pIC50 is greater than 6.00.
For `CCn1c(OCCc2ccccc2)nn2c(C3CCOCC3)ncc2c1=O` [Example 73] the value was greater than 6.00; for `CCn1c(OCCc2ccccc2F)nn2c(C3CCOCC3)ncc2c1=O` [Example 74], greater than 6.00.
On to `CCn1c(OCCc2cccc(F)c2)nn2c(C3CCOCC3)ncc2c1=O` [Example 75], for which the pIC50 is greater than 6.00.
In the case of `CCn1c(OCC2(c3ccc(Cl)cc3)CC2)nn2c(C3CCOCC3)ncc2c1=O` [Example 76], the pIC50 is greater than 6.00.
Consider `CCn1c(OCCc2ccc(-c3ccccc3)cc2)nn2c(C3CCOCC3)ncc2c1=O` [Example 77], for which the pIC50 is greater than 6.00.
As to `CCn1c(OCCc2ccc(C(F)(F)F)cc2)nn2c(C3CCOCC3)ncc2c1=O` [Example 78], the pIC50 was greater than 6.00.
`CCn1c(OCc2ccc(-c3ccc(Cl)cc3)cc2)nn2c(C3CCOCC3)ncc2c1=O` [Example 79]: the pIC50 is greater than 6.00.
To `CCn1c(OCc2ccc(-c3ccc(F)cc3)cc2)nn2c(C3CCOCC3)ncc2c1=O` [Example 80] belongs 5.00 to 6.00; to `CCn1c(OCc2ccc(-c3ccc(C)cc3)cc2)nn2c(C3CCOCC3)ncc2c1=O` [Example 81], greater than 6.00.
For `CCn1c(OCC2(c3ccccc3)CC2)nn2c(C3CCOCC3)ncc2c1=O` [Example 82] the value was greater than 6.00; for `CCn1c(OCc2ccc(-c3ccc(OC)cc3)cc2)nn2c(C3CCOCC3)ncc2c1=O` [Example 83], greater than 6.00; for `CCn1c(OCc2ccc(-c3ccc(C(F)(F)F)cc3)cc2)nn2c(C3CCOCC3)ncc2c1=O` [Example 84], greater than 6.00.
Consider `CCn1c(OCc2ccc(-c3ccc(C#N)cc3)cc2)nn2c(C3CCOCC3)ncc2c1=O` [Example 85], for which the pIC50 was greater than 6.00.
Turning to `CCn1c(OCC2CCC2)nn2c(C3CCOCC3)ncc2c1=O` [Example 86], the pIC50 is greater than 6.00.
As to `CCn1c(OCC2CC(F)(F)C2)nn2c(C3CCOCC3)ncc2c1=O` [Example 87], the pIC50 is greater than 6.00.
With `CCn1c(OCC2CCCC2)nn2c(C3CCOCC3)ncc2c1=O` [Example 88], the pIC50 is greater than 6.00.
For `CCn1c(OCC2CCCCC2)nn2c(C3CCOCC3)ncc2c1=O` [Example 89] the value was greater than 6.00.
Regarding `CCn1c(OC[C@H]2CC[C@@H](OC)CC2)nn2c(C3CCOCC3)ncc2c1=O` [Example 90], the pIC50 was greater than 6.00.
To `CCn1c(OC(C)C2CCC(F)(F)CC2)nn2c(C3CCOCC3)ncc2c1=O` (centres unmarked) [Example 92] belongs greater than 6.00.
To `CCn1c(OCCC2CCC(F)(F)CC2)nn2c(C3CCOCC3)ncc2c1=O` [Example 93] belongs greater than 6.00; to `CCCn1c(OCC2CCC(F)(F)CC2)nn2c(C3CCOCC3)ncc2c1=O` [Example 94], greater than 6.00; to `O=c1c2cnc(C3CCOCC3)n2nc(OCC2CCC(F)(F)CC2)n1C1CC1` [Example 95], greater than 6.00.
`CC(C)Cn1c(OCC2CCC(F)(F)CC2)nn2c(C3CCOCC3)ncc2c1=O` [Example 96]: the pIC50 is greater than 6.00.
For `O=c1c2cnc(C3CCOCC3)n2nc(OCc2ccc(-c3ccccn3)cc2)n1CC1CC1` [Example 97], the pIC50 is greater than 6.00.
As to `O=c1c2cnc(C3CCOCC3)n2nc(OCCc2ccc(Cl)cc2)n1CC1CC1` [Example 98], the pIC50 is greater than 6.00.
To `O=c1c2cnc(C3CCOCC3)n2nc(OCc2ccc(F)cc2)n1CC1CC1` [Example 99] belongs greater than 6.00.
Regarding `O=c1c2cnc(C3CCOCC3)n2nc(OCC2CCC(F)(F)CC2)n1CC1CC1` [Example 100], the pIC50 was greater than 6.00.
As to `CCOc1nn2c(C3CCOCC3)ncc2c(=O)n1CC1CCC(F)(F)CC1` [Example 102], the pIC50 was greater than 6.00.
As for `CC(C)Oc1nn2c(C3CCOCC3)ncc2c(=O)n1CC1CCC(F)(F)CC1` [Example 103], the pIC50 is greater than 6.00.
For the molecule `O=c1c2cnc(C3CCOCC3)n2nc(OCC2CCC(F)(F)CC2)n1CC1CCC(F)(F)CC1` [Example 104], the pIC50 is greater than 6.00.
Turning to `COc1nn2c(C3CCOCC3)ncc2c(=O)n1CCC1CCC(F)(F)CC1` [Example 105], the pIC50 is greater than 6.00.
As for `COc1nn2c(C3CCOCC3)ncc2c(=O)n1Cc1ccccc1` [Example 107], the pIC50 was greater than 6.00.
To `COc1nn2c(C3CCOCC3)ncc2c(=O)n1Cc1ccc(F)cc1` [Example 108] belongs greater than 6.00; to `Cn1c(OCC2CCOCC2)nn2c(C3CCC3)ncc2c1=O` [Example 111], greater than 6.00.

The values above are taken from US20180044343A1, “BICYCLIC IMIDAZOLO DERIVATIVE” (Sumitomo Dainippon Pharma Co., Ltd., priority 2015, published 2018).
